Test results taken from paper PMC2783484 (Molecular and biochemical parasitology, 2009).
Where two headings read alike, the source gives them in different places.

Legend:
[1] = target: T1, PfENT1 (Plasmodium falciparum, UniProt Q8IDM6); experiment: Uptake competition vs [3H]hypoxanthine in PfENT1-expressing Xenopus oocytes; assay type: cell-based; details: for competition with uptake of 100 nM [3H]hypoxanthine: 2.5 and 10 mM competitor; for competition with uptake of 100 nM [3H]hypoxanthine / Ki: 10 min uptake; for Ki: one site fit, Cheng-Prusoff, mean ± SEM
T1 sequence (Q8IDM6 whole entry): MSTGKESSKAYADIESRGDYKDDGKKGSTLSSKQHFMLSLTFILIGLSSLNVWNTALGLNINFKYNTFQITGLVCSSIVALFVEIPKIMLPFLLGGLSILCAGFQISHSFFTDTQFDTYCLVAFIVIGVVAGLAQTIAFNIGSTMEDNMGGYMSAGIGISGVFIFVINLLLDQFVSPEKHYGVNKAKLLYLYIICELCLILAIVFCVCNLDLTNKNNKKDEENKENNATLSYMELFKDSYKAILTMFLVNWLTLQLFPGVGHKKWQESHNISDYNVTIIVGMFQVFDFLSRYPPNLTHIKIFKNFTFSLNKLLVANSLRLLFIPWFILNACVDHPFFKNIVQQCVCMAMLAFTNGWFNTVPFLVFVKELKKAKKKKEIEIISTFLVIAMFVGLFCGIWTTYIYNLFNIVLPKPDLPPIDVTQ

[2] = tested on: P. falciparum; details: cited from earlier work; for concentration toxic to parasite growth: as sole purine source in culture
[3] = tested on: PfHGXPRT; details: read-out: Km for HGXPRT; cited from earlier work
[4] = target: T1, PfENT1; experiment: Uptake competition vs [3H]adenosine in PfENT1-expressing Xenopus oocytes; assay type: cell-based
[5] = target: T1, PfENT1; details: cited from earlier work
[6] = target: T1, PfENT1; experiment: Time course of radiolabeled substrate uptake by PfENT1-expressing oocytes; assay type: cell-based; details: […] [3H] substrate
[7] = tested on: intact parasites; details: read-out: Km for uptake in intact parasites; Quashie et al. (2008); cited from earlier work
[8] = Ki, Competition vs. [3H]hypoxanthine, 100 nM [3H]hypoxanthine
[9] = read-out: PfENT1 Km, Xenopus oocytes, Carter and coworkers
[10] = read-out: PfENT1 transport Km, Xenopus oocytes, Parker et al.

O=c1[nH]cnc2c([C@@H]3N[C@H](CO)[C@@H](O)[C@H]3O)c[nH]c12 [ImmH, Immucillin-H]
competition with uptake of 100 nM [3H]hypoxanthine [1]: failed to compete
inhibition of parasite growth ([2]; 10 μM immucillinH in the presence of 10 μM hypoxanthine): completely inhibited parasite growth

Nc1nc2nc[nH]c2c(=O)[nH]1 [guanine]
concentration toxic to parasite growth [2]: > 50 µM
Km [3]: 0.3 µM

Nc1ncnc2c(C3N[C@H](CO)[C@@H](O)[C@H]3O)c[nH]c12 (some centres unmarked) [Immucillin-A]
competition with uptake of 100 nM [3H]hypoxanthine [1]: failed to compete

Nc1nc2c([C@@H]3N[C@H](CO)[C@@H](O)[C@H]3O)c[nH]c2c(=O)[nH]1 [Immucillin-G]
competition with uptake of 100 nM [3H]hypoxanthine [1]: failed to compete

NC[C@H]1O[C@@H](n2cc(I)c3c(Cl)ncnc32)[C@H](O)[C@@H]1O [compound 1, 4-Chloro-5-iodo-7-(5-amino-5-deoxy-β-d-ribofuranosyl)pyrrolo[2,3-d]pyrimidine]
Ki [1, 8]: 3400 µM
increase of transport Ki compared to tubercidin ([1]; vs [3H]hypoxanthine): 8 fold
Ki [4]: 1200 ± 300 µM

OC[C@H]1O[C@@H](n2cnc3c(O)ncnc32)[C@H](O)[C@@H]1O [inosine]
Km [5, 9]: 253 µM

Nc1ncnc2nc[nH]c12 [adenine]
Km [5, 10]: 320 µM

CSC[C@H]1N[C@@H](c2c[nH]c3c(=O)[nH]cnc23)[C@H](O)[C@@H]1O [MT-ImmH]
effect on malaria parasites during in vitro culture [2]: lethal

CSC[C@H]1O[C@@H](n2ccc3c(N)ncnc32)[C@H](O)[C@@H]1O [MT-Tubercidin (10), 5′-methylthiotubercidin]
Ki ([1]; read-out: Ki, Competition vs. [3H]hypoxanthine, 100 nM [3H]hypoxanthine): 1100 µM

Nc1ncnc2c1c(I)cn2[C@@H]1O[C@H](CO)[C@@H](O)[C@H]1O [Iodotubercidin, 5′-iodotubercidin]
Ki [1, 8]: 54 ± 8 µM
Ki [4]: 66 ± 15 µM
second site, fold higher apparent affinity ([4]; two-site fit vs [3H]adenosine): 1000 fold

Nc1nc2c(ncn2[C@@H]2O[C@H](CO)[C@@H](O)[C@H]2O)c(=O)[nH]1 [guanosine]
concentration toxic to parasite growth [2]: > 50 µM

Nc1ncnc2c1ncn2[C@@H]1O[C@H](CO)[C@@H](O)[C@H]1O [Adenosine]
uptake per oocyte at 60 min [6]: ~7 pmol
Km [5, 9]: 13 µM
Km ([5]; read-out: PfENT1 adenosine Km, Downie et al.): 1860 µM
Km [5, 10]: 320 µM

Nc1ncnc2c1ccn2[C@@H]1O[C@H](CO)[C@@H](O)[C@H]1O [Tubercidin, 7-deazaadenosine]
Ki [1, 8]: 420 ± 110 µM
Ki [4]: 590 ± 100 µM
IC37, parasite growth inhibition ([2]; in vitro culture in RPMI media supplemented with human serum): 0.4 to 0.7 µM

O=c1[nH]c(=O)c2[nH]cnc2[nH]1 [xanthine]
concentration toxic to parasite growth [2]: > 50 µM

O=c1[nH]cnc2nc[nH]c12 [Hypoxanthine]
block of [3H]hypoxanthine uptake ([1]; 2 mM unlabeled hypoxanthine, 100 nM [3H]hypoxanthine): ~ 90%
Ki [1, 8]: 300 ± 32 µM
Km [7]: 0.34 µM
Km [5, 10]: 410 µM
Km [3]: 0.46 µM

O=c1[nH]cnc2cc[nH]c12 [9-Deaza-hypoxanthine, 9-Deazahypoxanthine]
Ki [1, 8]: 710 ± 410 µM
Ki [4]: 940 ± 270 µM
